# Test results: patent US20100316529A1, “Anti-Microbial Systems and Methods” (priority 2001, published 2010)
# “And” between values parts separate entries of the source, which are not always exact repeats. Equal values may be shown once.
# What was measured:
# Kleb. ornitholytica = test: EDTA salt dilution test, MIC/MBC; format: cell-based
# Ent. faeculm = test: EDTA salt dilution test, MIC/MBC; format: cell-based
# Ent. cloacae = test: EDTA salt dilution test, MIC/MBC; format: cell-based; conditions: three entries
# C. tropicalis = test: EDTA agar dilution method, yeasts, MIC/MBC; format: cell-based; conditions: Exhibit C
# Method: (§1) The bactericidal effects were measured as the Minimum Bactericidal Concentration (MBC), while the inhibitory effects were measured as the Minimum Inhibitory Concentration (MIC). In each case, the concentration was measured as milligrams of the disinfectant salt per milliliter of water (mg/ml).
# (§2) Protocol 3: Agar dilutions.
# (§3) Prepare nutrient agar plates with increasing concentrations of EDTA, 0, 0.5, 1, 1.5, 2, 4, 6, 8, 10, 15, 20, 25, 30 mg/mL, using the following method. • Pour 300 mL distilled water into a sterile glass bottle. • Add the appropriate amount of EDTA. This is the concentration desired ×300, in grams. • Once the EDTA has fully dissolved, add 8.4 g of Nutrient agar powder (Oxoid). Mix thoroughly. • Do this for each concentration of EDTA required. […] Do this until all the media is used up. Label the plates with the concentration of EDTA they contain. • These plates can then be stored, until they are needed, in a 4° C. fridge. • Use an automatic plate inoculator to inoculate each plate with 21 organisms.
# C. guilliermondii = test: EDTA agar dilution method, yeasts, MIC/MBC; format: cell-based; conditions: Exhibit C
# Method: as §1, §2, §3
# C. glabrata = test: EDTA agar dilution method, yeasts, MIC/MBC; format: cell-based; conditions: two entries, Exhibit C
# Method: as §1, §2, §3
# C. parapsilosis = test: EDTA agar dilution method, yeasts, MIC/MBC; format: cell-based; conditions: Exhibit C
# Method: as §1, §2, §3
# C. albicans = test: EDTA agar dilution method, yeasts, MIC/MBC; format: cell-based; conditions: three entries, Exhibit C
# Method: as §1, §2, §3
# Cornyeform amycolatum = test: EDTA salt dilution test, MIC/MBC; format: cell-based
# Kleb. pnemoniae = test: EDTA salt dilution test, MIC/MBC; format: cell-based; conditions: two entries
# Method: (§4) Protocol one: Broth dilutions:
# (§5) Inoculate a 25 ml nutrient broth (Oxoid No2) in a sterile universal container with one of the following organisms; Pseudomonas aeruginosa, Proteus Mirabilis, E. coli, Klebsiella pneumoniae, Staph aureus, Coagulase negative staphylococci, Enterococcus faecalis or MRSA.
# (§6) Incubate the broth at 37° C. overnight.
# (§7) To make these concentrations put the EDTA needed for 10 mLs in only 9 mLs of broth in sterile universal containers, as this will be diluted further when the organisms are added.
# (§8) Dilute the overnight broth cultures to 10^7 organisms/mL using more sterile nutrient broth.
# (§9) Add 1 mL of this diluent to each of the EDTA series broths. This gives a final concentration of 10^6 organism/mL in the EDTA broths.
# (§10) Incubate for 18 hours at 37° C.
# (§11) Next day visually read the MIC's by observing the turbidity of the broths.
# (§12) Plate out 1 uL of each dilution onto fresh blood agar plate and spread using a sterile plastic spreader.
# (§13) Incubate overnight at 37° C.
# (§14) Next day read the MBC's by performing colony counts.
# VRE = test: EDTA salt dilution test, MIC/MBC; format: cell-based; conditions: two entries
# Method: as §4, §5, §6, §7, §8, §9, §10, §11, §12, §13, §14
# S. lentus = test: EDTA salt dilution test, MIC/MBC; format: cell-based
# Method: as §4, §5, §6, §7, §8, §9, §10, §11, §12, §13, §14
# MRSA = test: EDTA salt dilution test, MIC/MBC; format: cell-based; conditions: five entries, Exhibit A2
# Method: as §4, §5, §6, §7, §8, §9, §10, §11, §12, §13, §14
# S. capitis = test: EDTA salt dilution test, MIC/MBC; format: cell-based; conditions: two entries, Exhibit A2
# Method: as §4, §5, §6, §7, §8, §9, §10, §11, §12, §13, §14
# S. aureus = test: EDTA salt dilution test, MIC/MBC; format: cell-based; conditions: five entries, Exhibit A2
# Method: as §4, §5, §6, §7, §8, §9, §10, §11, §12, §13, §14
# Ent. faecalis = test: EDTA salt dilution test, MIC/MBC; format: cell-based
# Method: as §4, §5, §6, §7, §8, §9, §10, §11, §12, §13, §14
# S. xylosus = test: EDTA salt dilution test, MIC/MBC; format: cell-based
# Method: as §4, §5, §6, §7, §8, §9, §10, §11, §12, §13, §14
# Pseudomonas sp. = test: EDTA salt dilution test, MIC/MBC; format: cell-based
# Method: as §4, §5, §6, §7, §8, §9, §10, §11, §12, §13, §14
# Pseudomonas aeruginosa = test: EDTA salt dilution test, MIC/MBC; format: cell-based; conditions: two entries
# Method: as §4, §5, §6, §7, §8, §9, §10, §11, §12, §13, §14
# S. simulans = test: EDTA salt dilution test, MIC/MBC; format: cell-based
# Method: as §4, §5, §6, §7, §8, §9, §10, §11, §12, §13, §14
# S. epidermidis = test: EDTA salt dilution test, MIC/MBC; format: cell-based; conditions: two entries
# Method: as §4, §5, §6, §7, §8, §9, §10, §11, §12, §13, §14
# Proteus mirabilis = test: EDTA salt dilution test, MIC/MBC; format: cell-based; conditions: two entries
# Method: as §4, §5, §6, §7, §8, §9, §10, §11, §12, §13, §14
# Coryneform strait/amy = test: EDTA salt dilution test, MIC/MBC; format: cell-based
# Kleb. oxytoca = test: EDTA salt dilution test, MIC/MBC; format: cell-based
# C. lucitaniae = test: EDTA agar dilution method, yeasts, MIC/MBC; format: cell-based; conditions: Exhibit C
# Description: as §2
# Do this until all the media is used up.
# Proteus vulgaris = test: EDTA salt dilution test, MIC/MBC; format: cell-based
# Steno. maltophilia = test: EDTA salt dilution test, MIC/MBC; format: cell-based
# Acinetobacter baumanii = test: EDTA salt dilution test, MIC/MBC; format: cell-based; conditions: two entries, Exhibit A2
structure (smiles),measurement,setting,value
O=C([O-])CN(CCN(CC(=O)[O-])CC(=O)[O-])CC(=O)[O-].[Na+].[Na+].[Na+].[Na+] [Tetrasodium EDTA],"MBC, minimum concentration required to kill an entire population",Kleb. ornitholytica; Exhibit A1,30000 µg/mL
same,"MIC, minimum concentration required to inhibit growth",Kleb. ornitholytica; Exhibit A2,4000 µg/mL
same,"MIC, minimum concentration required to inhibit growth","Ent. faeculm; Ent. faecuim, Exhibit A2",<500 µg/mL
same,"MBC, minimum concentration required to kill an entire population","Ent. faeculm; Ent. faeculm, Exhibit A1",>30000 µg/mL
same,"MBC, minimum concentration required to kill an entire population",Ent. cloacae; Exhibit A1,20000 µg/mL
same,"MIC, minimum concentration required to inhibit growth",Ent. cloacae; Exhibit A2,8000 µg/mL and 10000 µg/mL
same,"MBC's, Minimum Bactericidal Concentration",C. tropicalis,10000 µg/mL
same,"MIC's, Minimum Inhibitory Concentration",C. tropicalis,500 µg/mL
same,"MBC's, Minimum Bactericidal Concentration",C. guilliermondii,500 µg/mL
same,"MIC's, Minimum Inhibitory Concentration",C. guilliermondii,500 µg/mL
same,"MIC's, Minimum Inhibitory Concentration",C. glabrata,500 µg/mL
same,"MBC's, Minimum Bactericidal Concentration",C. parapsilosis,8000 µg/mL
same,"MIC's, Minimum Inhibitory Concentration",C. parapsilosis,500 µg/mL
same,"MIC's, Minimum Inhibitory Concentration",C. albicans,500 µg/mL
same,"MBC, minimum concentration required to kill an entire population",Cornyeform amycolatum; Exhibit A1,<500 µg/mL
same,"MIC, minimum concentration required to inhibit growth",Cornyeform amycolatum; Exhibit A2,<500 µg/mL
same,"MBC, minimum concentration required to kill an entire population",Kleb. pnemoniae; Exhibit A1,15000 µg/mL
same,"MIC, minimum concentration required to inhibit growth",Kleb. pnemoniae; Exhibit A2,8000 µg/mL and 4000 µg/mL
same,"MBC, minimum concentration required to kill an entire population",VRE; Exhibit A1,15000 µg/mL and >30000 µg/mL
same,"MIC, minimum concentration required to inhibit growth",VRE; Exhibit A2,1000 µg/mL
same,"MBC, minimum concentration required to kill an entire population",S. lentus; Exhibit A1,30000 µg/mL
same,"MIC, minimum concentration required to inhibit growth",S. lentus; Exhibit A2,1000 µg/mL
same,"MIC, minimum concentration required to inhibit growth",MRSA,1000 µg/mL
same,"MIC, minimum concentration required to inhibit growth",S. capitis,1000 µg/mL and <500 µg/mL
same,"MIC, minimum concentration required to inhibit growth",S. aureus,<500 µg/mL and 1000 µg/mL
same,"MBC, minimum concentration required to kill an entire population",Ent. faecalis; Exhibit A1,10000 µg/mL
same,"MIC, minimum concentration required to inhibit growth",Ent. faecalis; Exhibit A2,1000 µg/mL
same,"MBC, minimum concentration required to kill an entire population",S. xylosus; Exhibit A1,25000 µg/mL
same,"MIC, minimum concentration required to inhibit growth",S. xylosus; Exhibit A2,<500 µg/mL
same,"MBC, minimum concentration required to kill an entire population",Pseudomonas sp.; Exhibit A1,30000 µg/mL
same,"MIC, minimum concentration required to inhibit growth",Pseudomonas sp.; Exhibit A2,2000 µg/mL
same,"MBC, minimum concentration required to kill an entire population",Pseudomonas aeruginosa; Exhibit A1,20000 µg/mL
same,"MIC, minimum concentration required to inhibit growth",Pseudomonas aeruginosa; Exhibit A2,2000 µg/mL
same,"MBC, minimum concentration required to kill an entire population",S. simulans; Exhibit A1,30000 µg/mL
same,"MIC, minimum concentration required to inhibit growth",S. simulans; Exhibit A2,1000 µg/mL
same,"MBC, minimum concentration required to kill an entire population",S. epidermidis; Exhibit A1,1000 µg/mL and 2000 µg/mL
same,"MIC, minimum concentration required to inhibit growth",S. epidermidis; Exhibit A2,1000 µg/mL
same,"MBC, minimum concentration required to kill an entire population",Proteus mirabilis; Exhibit A1,20000 µg/mL
same,"MIC, minimum concentration required to inhibit growth",Proteus mirabilis; Exhibit A2,1000 µg/mL
same,MIC values compared with the other two EDTA compounds,variety of yeasts; Exhibit C,lower than the MIC values for the other two EDTA compounds
same,MBC values against yeasts compared with bacteria,variety of yeasts; Exhibit C versus Gram negative and Gram positive organisms,comparable to the MBC values for the Gram negative and Gram positive organisms
same,"MBC, minimum concentration required to kill an entire population",Coryneform strait/amy; Exhibit A1,<500 µg/mL
same,"MIC, minimum concentration required to inhibit growth",Coryneform strait/amy; Exhibit A2,<500 µg/mL
same,"MBC, minimum concentration required to kill an entire population",Kleb. oxytoca; Exhibit A1,8000 µg/mL
same,"MIC, minimum concentration required to inhibit growth",Kleb. oxytoca; Exhibit A2,4000 µg/mL
same,"MBC's, Minimum Bactericidal Concentration",C. lucitaniae,6000 µg/mL
same,"MIC's, Minimum Inhibitory Concentration",C. lucitaniae,500 µg/mL
same,"MBC, minimum concentration required to kill an entire population",Proteus vulgaris; Exhibit A1,20000 µg/mL
same,"MIC, minimum concentration required to inhibit growth",Proteus vulgaris; Exhibit A2,4000 µg/mL
same,"MBC, minimum concentration required to kill an entire population",Steno. maltophilia; Exhibit A1,4000 µg/mL
same,"MIC, minimum concentration required to inhibit growth",Steno. maltophilia; Exhibit A2,1000 µg/mL
same,"MIC, minimum concentration required to inhibit growth",Acinetobacter baumanii,<500 µg/mL and 1000 µg/mL
